Results taken from ChEMBL document CHEMBL1135452, “Side-chain homologation of nodulisporic acid: synthesis of potent new dienyl derivatives” (Bioorg Med Chem Lett, 2002).

Test system: Pulicinae
Assay: In vitro systemic flea efficacy using membrane feeding assay.
Assay type: functional

Row | Structure (SMILES) | Activity
1 | C=C(C)[C@H]1C(=O)c2c3c(cc4c5c(n1c24)[C@@]1(C)C(CC[C@H]2[C@](C)(/C=C/C=C(\CC)C(=O)NC(C)(C)C)[C@@H](O)CC[C@@]21C)C5)C1=CC(C)(C)OC(C)(C)C1[C@@H]3O (some centres undefined) | 1 p.p.m.
2 | C=C(C)[C@H]1C(=O)c2c3c(cc4c5c(n1c24)[C@@]1(C)C(CC[C@H]2[C@](C)(/C=C/C(C)=C/C(=O)NC4CC4)[C@@H](O)CC[C@@]21C)C5)C1=CC(C)(C)OC(C)(C)C1[C@@H]3O (some centres undefined) | 1 p.p.m.
3 | C=C(C)[C@H]1C(=O)c2c3c(cc4c5c(n1c24)[C@@]1(C)C(CC[C@H]2[C@](C)(/C=C/C=C(\CCC)C(=O)NC(C)(C)C)[C@@H](O)CC[C@@]21C)C5)C1=CC(C)(C)OC(C)(C)C1[C@@H]3O (some centres undefined) | 10 p.p.m.
4 | C=C(C)[C@H]1C(=O)c2c3c(cc4c5c(n1c24)[C@@]1(C)C(CC[C@H]2[C@](C)(/C=C/C(C)=C/C(=O)NCC)[C@@H](O)CC[C@@]21C)C5)C1=CC(C)(C)OC(C)(C)C1[C@@H]3O (some centres undefined) | 10 p.p.m.
5 | C=C(C)[C@H]1C(=O)c2c3c(cc4c5c(n1c24)[C@@]1(C)C(CC[C@H]2[C@](C)(/C=C/C=C/C(N)=O)[C@@H](O)CC[C@@]21C)C5)C1=CC(C)(C)OC(C)(C)C1[C@@H]3O (some centres undefined) | 1 p.p.m.
6 | C=C(C)[C@H]1C(=O)c2c3c(cc4c5c(n1c24)[C@@]1(C)C(CC[C@H]2[C@](C)(/C=C/C=C(\CCC)C(=O)NCC)[C@@H](O)CC[C@@]21C)C5)C1=CC(C)(C)OC(C)(C)C1[C@@H]3O (stereo in doubt; 45) | 1 p.p.m.
7 | C=C(C)[C@H]1C(=O)c2c3c(cc4c5c(n1c24)[C@@]1(C)C(CC[C@H]2[C@](C)(/C=C/C=C/C(=O)O)[C@@H](O)CC[C@@]21C)C5)C1=CC(C)(C)OC(C)(C)C1[C@@H]3O (some centres undefined) | 10 p.p.m.
8 | C=C(C)[C@H]1C(=O)c2c3c(cc4c5c(n1c24)[C@@]1(C)C(CC[C@H]2[C@](C)(/C=C/C=C(\C#N)C(=O)N(C)C)[C@@H](O)CC[C@@]21C)C5)C1=CC(C)(C)OC(C)(C)C1[C@@H]3O (some centres undefined) | 1 p.p.m.
9 | C=C(C)[C@H]1C(=O)c2c3c(cc4c5c(n1c24)[C@@]1(C)C(CC[C@H]2[C@](C)(/C=C/C=C/C(=O)N(C)CC)[C@@H](O)CC[C@@]21C)C5)C1=CC(C)(C)OC(C)(C)C1[C@@H]3O (some centres undefined) | 1 p.p.m.
10 | C=C(C)[C@H]1C(=O)c2c3c(cc4c5c(n1c24)[C@@]1(C)C(CC[C@H]2[C@](C)(/C=C/C=C/C(=O)OCC)[C@@H](O)CC[C@@]21C)C5)C1=CC(C)(C)OC(C)(C)C1[C@@H]3O (some centres undefined) | 1 p.p.m.
11 | C=CC/C(=C\C=C\[C@]1(C)[C@@H](O)CC[C@@]2(C)[C@H]1CCC1Cc3c(n4c5c(c6c(cc35)C3=CC(C)(C)OC(C)(C)C3[C@@H]6O)C(=O)[C@@H]4C(=C)C)[C@@]12C)C(N)=O (some centres undefined) | 1 p.p.m.
12 | C=C(C)[C@H]1C(=O)c2c3c(cc4c5c(n1c24)[C@@]1(C)C(CC[C@H]2[C@](C)(/C=C/C=C(\CC)C(N)=O)[C@@H](O)CC[C@@]21C)C5)C1=CC(C)(C)OC(C)(C)C1[C@@H]3O (some centres undefined) | 1 p.p.m.
13 | C=C(C)[C@H]1C(=O)c2c3c(cc4c5c(n1c24)[C@@]1(C)C(CC[C@H]2[C@](C)(/C=C/C=C(\CC)C(=O)N(C)C)[C@@H](O)CC[C@@]21C)C5)C1=CC(C)(C)OC(C)(C)C1[C@@H]3O (some centres undefined) | 1 p.p.m.
14 | C=C(C)[C@H]1C(=O)c2c3c(cc4c5c(n1c24)[C@@]1(C)C(CC[C@H]2[C@](C)(/C=C/C=C(\OC)C(=O)NC(C)(C)C)[C@@H](O)CC[C@@]21C)C5)C1=CC(C)(C)OC(C)(C)C1C3 (some centres undefined) | > 10 p.p.m.
15 | C=C(C)[C@H]1C(=O)c2c3c(cc4c5c(n1c24)[C@@]1(C)C(CC[C@H]2[C@](C)(/C=C/C=C/C(=O)NC(C)(C)C)[C@@H](O)CC[C@@]21C)C5)C1=CC(C)(C)OC(C)(C)C1[C@@H]3O (some centres undefined) | 1 p.p.m.
16 | C=C(C)[C@H]1C(=O)c2c3c(cc4c5c(n1c24)[C@@]1(C)C(CC[C@H]2[C@](C)(/C=C/C=C/C(=O)OC(C)(C)C)[C@@H](O)CC[C@@]21C)C5)C1=CC(C)(C)OC(C)(C)C1[C@@H]3O (some centres undefined) | 10 p.p.m.
17 | C=C(C)[C@H]1C(=O)c2c3c(cc4c5c(n1c24)[C@@]1(C)C(CC[C@H]2[C@](C)(/C=C/C=C(\CC)C(=O)NCC)[C@@H](O)CC[C@@]21C)C5)C1=CC(C)(C)OC(C)(C)C1[C@@H]3O (some centres undefined) | 1 p.p.m.
18 | C=C(C)[C@H]1C(=O)c2c3c(cc4c5c(n1c24)[C@@]1(C)C(CC[C@H]2[C@](C)(/C=C/C=C(\OC)C(=O)NCC)[C@@H](O)CC[C@@]21C)C5)C1=CC(C)(C)OC(C)(C)C1[C@@H]3O (some centres undefined) | 10 p.p.m.
19 | C=C(C)[C@H]1C(=O)c2c3c(cc4c5c(n1c24)[C@@]1(C)C(CC[C@H]2[C@](C)(/C=C/C=C/C(=O)OCc4ccccc4)[C@@H](O)CC[C@@]21C)C5)C1=CC(C)(C)OC(C)(C)C1[C@@H]3O (some centres undefined) | 10 p.p.m.
20 | C=CC/C(=C\C=C\[C@]1(C)[C@@H](O)CC[C@@]2(C)[C@H]1CCC1Cc3c(n4c5c(c6c(cc35)C3=CC(C)(C)OC(C)(C)C3[C@@H]6O)C(=O)[C@@H]4C(=C)C)[C@@]12C)C(=O)NC(C)(C)C (some centres undefined) | 10 p.p.m.
21 | C=C(C)[C@H]1C(=O)c2c3c(cc4c5c(n1c24)[C@@]1(C)C(CC[C@H]2[C@](C)(/C=C/C=C(\CCCC)C(=O)NC(C)(C)C)[C@@H](O)CC[C@@]21C)C5)C1=CC(C)(C)OC(C)(C)C1[C@@H]3O (some centres undefined) | 10 p.p.m.
22 | C=C(C)[C@H]1C(=O)c2c3c(cc4c5c(n1c24)[C@@]1(C)C(CC[C@H]2[C@](C)(/C=C/C=C(\C#N)C(=O)N4CCCC4)[C@@H](O)CC[C@@]21C)C5)C1=CC(C)(C)OC(C)(C)C1[C@@H]3O (some centres undefined) | 10 p.p.m.

Row | Structure (SMILES) | Activity
23 | C=C(C)[C@H]1C(=O)c2c3c(cc4c5c(n1c24)[C@@]1(C)C(CC[C@H]2[C@](C)(/C=C/C=C(\CCCC)C(=O)NCC)[C@@H](O)CC[C@@]21C)C5)C1=CC(C)(C)OC(C)(C)C1[C@@H]3O (some centres undefined) | 1 p.p.m.
24 | C=C(C)[C@H]1C(=O)c2c3c(cc4c5c(n1c24)[C@@]1(C)C(CC[C@H]2[C@](C)(/C=C/C=C(\F)C(=O)NCC)[C@@H](O)CC[C@@]21C)C5)C1=CC(C)(C)OC(C)(C)C1[C@@H]3O (some centres undefined) | 1 p.p.m.
25 | C=C/C=C/[C@]1(C)[C@@H](O)CC[C@@]2(C)[C@H]1CCC1Cc3c(n4c5c(c6c(cc35)C3=CC(C)(C)OC(C)(C)C3[C@@H]6O)C(=O)[C@@H]4C(=C)C)[C@@]12C (some centres undefined) | 10 p.p.m.
26 | C=C(C)[C@H]1C(=O)c2c3c(cc4c5c(n1c24)[C@@]1(C)C(CC[C@H]2[C@](C)(/C=C/C=C(\CC)C(=O)O)[C@@H](O)CC[C@@]21C)C5)C1=CC(C)(C)OC(C)(C)C1[C@@H]3O (some centres undefined) | 10 p.p.m.
27 | C=C(C)[C@H]1C(=O)c2c3c(cc4c5c(n1c24)[C@@]1(C)C(CC[C@H]2[C@](C)(/C=C/C(C)=C/C(=O)NC(C)C)[C@@H](O)CC[C@@]21C)C5)C1=CC(C)(C)OC(C)(C)C1[C@@H]3O (some centres undefined) | 1 p.p.m.
28 | C=C(C)[C@H]1C(=O)c2c3c(cc4c5c(n1c24)[C@@]1(C)C(CC[C@H]2[C@](C)(/C=C/C=C/P(=O)(OCC)OCC)[C@@H](O)CC[C@@]21C)C5)C1=CC(C)(C)OC(C)(C)C1[C@@H]3O (some centres undefined) | 10 p.p.m.
29 | C=C(C)[C@H]1C(=O)c2c3c(cc4c5c(n1c24)[C@@]1(C)C(CC[C@H]2[C@](C)(/C=C/C=C/C(=O)N4CCCC4)[C@@H](O)CC[C@@]21C)C5)C1=CC(C)(C)OC(C)(C)C1[C@@H]3O (some centres undefined) | 1 p.p.m.
30 | C=C(C)[C@H]1C(=O)c2c3c(cc4c5c(n1c24)[C@@]1(C)C(CC[C@H]2[C@](C)(/C=C/C=C(\OC)C(=O)O)[C@@H](O)CC[C@@]21C)C5)C1=CC(C)(C)OC(C)(C)C1[C@@H]3O (some centres undefined) | 10 p.p.m.
31 | C=C(C)[C@H]1C(=O)c2c3c(cc4c5c(n1c24)[C@@]1(C)C(CC[C@H]2[C@](C)(/C=C/C=C(\CCC)C(N)=O)[C@@H](O)CC[C@@]21C)C5)C1=CC(C)(C)OC(C)(C)C1[C@@H]3O (some centres undefined) | 10 p.p.m.
32 | C=CCOC(=O)/C=C/C=C/[C@]1(C)[C@@H](O)CC[C@@]2(C)[C@H]1CCC1Cc3c(n4c5c(c6c(cc35)C3=CC(C)(C)OC(C)(C)C3[C@@H]6O)C(=O)[C@@H]4C(=C)C)[C@@]12C (some centres undefined) | 1 p.p.m.
33 | C=C(C)[C@H]1C(=O)c2c3c(cc4c5c(n1c24)[C@@]1(C)C(CC[C@H]2[C@](C)(/C=C/C(C)=C/C(=O)NC(C)(C)C)[C@@H](O)CC[C@@]21C)C5)C1=CC(C)(C)OC(C)(C)C1[C@@H]3O (some centres undefined) | 10 p.p.m.
34 | C=C(C)[C@H]1C(=O)c2c3c(cc4c5c(n1c24)[C@@]1(C)C(CC[C@H]2[C@](C)(/C=C/C=C(\OC)C(=O)NC(C)(C)C)[C@@H](O)CC[C@@]21C)C5)C1=CC(C)(C)OC(C)(C)C1[C@@H]3O (some centres undefined) | 1 p.p.m.
35 | C=C(C)[C@H]1C(=O)c2c3c(cc4c5c(n1c24)[C@@]1(C)C(CC[C@H]2[C@](C)(/C=C/C=C(\C#N)c4nc6ccccc6[nH]4)[C@@H](O)CC[C@@]21C)C5)C1=CC(C)(C)OC(C)(C)C1[C@@H]3O (some centres undefined) | 10 p.p.m.
36 | C=C(C)[C@H]1C(=O)c2c3c(cc4c5c(n1c24)[C@@]1(C)C(CC[C@H]2[C@](C)(/C=C/C=C/C(C)=O)[C@@H](O)CC[C@@]21C)C5)C1=CC(C)(C)OC(C)(C)C1[C@@H]3O (some centres undefined) | 10 p.p.m.
37 | C=C(C)[C@H]1C(=O)c2c3c(cc4c5c(n1c24)[C@@]1(C)C(CC[C@H]2[C@](C)(/C=C/C=C/C(=O)N(C)C)[C@@H](O)CC[C@@]21C)C5)C1=CC(C)(C)OC(C)(C)C1[C@@H]3O (some centres undefined) | 0.1 p.p.m.
38 | C=CC/C(=C\C=C\[C@]1(C)[C@@H](O)CC[C@@]2(C)[C@H]1CCC1Cc3c(n4c5c(c6c(cc35)C3=CC(C)(C)OC(C)(C)C3[C@@H]6O)C(=O)[C@@H]4C(=C)C)[C@@]12C)C(=O)OC (some centres undefined) | 10 p.p.m.
39 | C=C(C)[C@H]1C(=O)c2c3c(cc4c5c(n1c24)[C@@]1(C)C(CC[C@H]2[C@](C)(/C=C/C=C(\CC)C(=O)N4CCCC4)[C@@H](O)CC[C@@]21C)C5)C1=CC(C)(C)OC(C)(C)C1[C@@H]3O (some centres undefined) | 10 p.p.m.
40 | C=C(C)[C@H]1C(=O)c2c3c(cc4c5c(n1c24)[C@@]1(C)C(CC[C@H]2[C@](C)(/C=C/C=C/C(=O)NCC)[C@@H](O)CC[C@@]21C)C5)C1=CC(C)(C)OC(C)(C)C1[C@@H]3O (some centres undefined) | 1 p.p.m.
41 | C=C(C)[C@H]1C(=O)c2c3c(cc4c5c(n1c24)[C@@]1(C)C(CC[C@H]2[C@](C)(/C=C/C=C(\C)C(=O)O)[C@@H](O)CC[C@@]21C)C5)C1=CC(C)(C)OC(C)(C)C1[C@@H]3O (some centres undefined) | 1 p.p.m.
42 | C=CC/C(=C\C=C\[C@]1(C)[C@@H](O)CC[C@@]2(C)[C@H]1CCC1Cc3c(n4c5c(c6c(cc35)C3=CC(C)(C)OC(C)(C)C3[C@@H]6O)C(=O)[C@@H]4C(=C)C)[C@@]12C)C(=O)N(C)C (some centres undefined) | 1 p.p.m.
43 | C=C(C)[C@H]1C(=O)c2c3c(cc4c5c(n1c24)[C@@]1(C)C(CC[C@H]2[C@](C)(/C=C/C=C/C(=O)NCc4ccccc4)[C@@H](O)CC[C@@]21C)C5)C1=CC(C)(C)OC(C)(C)C1[C@@H]3O (some centres undefined) | 10 p.p.m.
44 | C=C(C)[C@H]1C(=O)c2c3c(cc4c5c(n1c24)[C@@]1(C)C(CC[C@H]2[C@](C)(/C=C/C=C(\CCC)C(=O)O)[C@@H](O)CC[C@@]21C)C5)C1=CC(C)(C)OC(C)(C)C1[C@@H]3O (some centres undefined) | > 10 p.p.m.
